Data as given in patent EP4653451A1, “POLYPEPTIDE COMPOUND AND USE THEREOF” (Chengdu New Radiomedicine Technology Co., Ltd., priority 2023, dated 2024).
Structures can show the parent of a compound that is named as a salt. Where two headings read alike, the source gives them in different places. Numbered stars: 1 amine (or outer) side, 2 acyl side, 3 side chain; on linkers, the order of the positions; unused ones are H or OH. Bridge positions count the residues as written; N and C are the ends. Square brackets hold non-standard residues; d marks the D form. Peptide text beside a SMILES is read from it. * marks the point of attachment. TBMB(SCH2CH2NH-DOTA) = O=C(O)CN1CCN(CC(=O)O)CCN(CC(=O)NCCSCc2cc(C[*:1])cc(C[*:2])c2)CCN(CC(=O)O)CC1; X4 = CC(=O)NC[C@H](CSCc1cccc(C[*:1])c1)N[*:2]; X6 = NC[C@H](CSCc1cccc(C[*:1])c1)N[*:2]; 1Nal = N[C@@H](Cc1cccc2ccccc12)C(=O)O; d1Nal = N[C@H](Cc1cccc2ccccc12)C(=O)O; mXylylene = c1cc(C[*:1])cc(C[*:2])c1; Cha = N[C@@H](CC1CCCCC1)C(=O)O; d(β3hC) = N[C@H](CS)CC(=O)O; β3hC = N[C@@H](CS)CC(=O)O; Hexanoyl = CCCCCC(=O)*

Experiments:
[1] = molecular target: T1, human recombinant FAP protein (Homo sapiens, UniProt Q12884); assay: Inhibitory activity against FAP protease activity (Z-Gly-Pro-AMC fluorescence); assay type: biochemical; conditions: for inhibitory activity against FAP protease activity: in words
T1 construct: purchased Acrobiosystems FAP-H82Q6
T1 sequence (Q12884 1-760): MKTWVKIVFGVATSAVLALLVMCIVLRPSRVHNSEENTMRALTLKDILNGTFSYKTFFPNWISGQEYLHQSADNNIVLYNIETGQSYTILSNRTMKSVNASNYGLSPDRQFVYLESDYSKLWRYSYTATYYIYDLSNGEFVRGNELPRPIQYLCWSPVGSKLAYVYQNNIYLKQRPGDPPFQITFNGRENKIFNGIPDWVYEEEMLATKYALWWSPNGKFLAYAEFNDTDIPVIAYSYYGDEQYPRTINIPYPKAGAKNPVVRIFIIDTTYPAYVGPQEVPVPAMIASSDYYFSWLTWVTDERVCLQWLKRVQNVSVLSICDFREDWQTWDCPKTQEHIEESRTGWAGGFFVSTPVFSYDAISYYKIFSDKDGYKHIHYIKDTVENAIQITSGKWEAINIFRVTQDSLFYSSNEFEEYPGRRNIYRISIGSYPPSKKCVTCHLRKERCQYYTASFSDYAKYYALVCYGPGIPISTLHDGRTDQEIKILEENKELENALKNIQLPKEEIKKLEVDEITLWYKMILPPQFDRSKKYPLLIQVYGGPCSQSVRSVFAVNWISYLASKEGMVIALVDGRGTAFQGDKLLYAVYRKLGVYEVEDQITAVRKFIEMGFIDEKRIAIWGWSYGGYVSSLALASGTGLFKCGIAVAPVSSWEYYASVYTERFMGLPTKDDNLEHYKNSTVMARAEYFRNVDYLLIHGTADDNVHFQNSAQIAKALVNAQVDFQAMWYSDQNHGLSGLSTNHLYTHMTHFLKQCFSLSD
Description: The human recombinant FAP protein (Acrobiosystems, FAP-H82Q6) was diluted to a 125 pM FAP working solution with an assay buffer (50 mM Tris-HCl, 1 M NaCl, 1 mg/mL BSA, pH 7.5), and the FAP substrate (Z-Gly-Pro-AMC (LEONBIO, 68542-93-8)) was diluted to a 150 µM substrate working solution with the assay buffer. 40 µl of FAP working solution and 20 µl of compounds at different concentrations (4-fold dilution) were taken, then 40 µl of substrate working solution was added, and the mixture was uniformly mixed on a shaker at room temperature for 1 min. The uniformly mixed mixture was reacted at room temperature in the dark for 90 min. The fluorescence value Ex = 380 nm/Em = 460 nm was read by using a microplate reader. The original data was saved, and the IC50 value of the compound was obtained by using the original data or the Inhibition% via calculation and analyzing the data with Graphpad PRISM.

[2] = molecular target: T2, human recombinant DPP4 protein (Homo sapiens, UniProt P27487); assay: Inhibitory activity against DPP4 protease activity (H-Gly-Pro-AMC fluorescence); assay type: biochemical; conditions: 125 pM DPP4 working solution, 90 min at room temperature
T2 construct: purchased Acrobiosystems DP4-H5211
T2 sequence (P27487 whole entry): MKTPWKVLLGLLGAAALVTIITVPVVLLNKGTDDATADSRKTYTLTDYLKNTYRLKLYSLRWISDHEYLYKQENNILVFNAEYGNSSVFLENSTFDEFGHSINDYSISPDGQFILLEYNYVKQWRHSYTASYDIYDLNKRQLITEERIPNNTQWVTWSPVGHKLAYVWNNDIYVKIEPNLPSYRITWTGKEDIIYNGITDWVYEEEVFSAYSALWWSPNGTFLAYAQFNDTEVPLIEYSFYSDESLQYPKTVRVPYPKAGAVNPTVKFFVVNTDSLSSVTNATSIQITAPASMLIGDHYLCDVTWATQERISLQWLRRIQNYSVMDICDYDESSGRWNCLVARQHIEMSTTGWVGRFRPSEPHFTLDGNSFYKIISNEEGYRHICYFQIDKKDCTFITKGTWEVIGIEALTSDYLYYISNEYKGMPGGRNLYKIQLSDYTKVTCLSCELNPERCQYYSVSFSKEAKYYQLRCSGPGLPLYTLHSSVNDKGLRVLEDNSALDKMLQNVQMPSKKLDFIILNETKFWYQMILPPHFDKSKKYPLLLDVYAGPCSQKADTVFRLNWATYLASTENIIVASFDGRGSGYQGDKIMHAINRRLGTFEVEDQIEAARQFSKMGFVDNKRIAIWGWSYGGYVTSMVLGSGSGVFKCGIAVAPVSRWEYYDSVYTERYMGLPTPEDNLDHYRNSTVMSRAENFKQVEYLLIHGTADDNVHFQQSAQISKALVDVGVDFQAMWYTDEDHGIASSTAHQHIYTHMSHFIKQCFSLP
Description: The human recombinant DPP4 protein (Acrobiosystems, DP4-H5211) was formulated into a 125 pM working solution with an assay buffer (20 mM Tris-HCl, 100 mM NaCl), and the DPP4 substrate (H-Gly-Pro-AMC.HBr (LEONBIO, 115035-46-6)) was diluted to a 250 µM DPP4 substrate working solution with the assay buffer. 40 µl of DPP4 working solution and 20 µl of compounds at different concentrations (4-fold dilution) were taken, then 40 µl of DPP4 substrate working solution was added, and the mixture was uniformly mixed on a shaker at room temperature for 1 min. The uniformly mixed mixture was reacted at room temperature in the dark for 90 min. Reading was made by microplate reader at excitation and emission wavelengths of 380 nm and 460 nm. The original data was saved, and the IC50 value of the compound was obtained by analyzing the data with Graphpad PRISM.

[3] = 125 pM FAP working solution, 90 min at room temperature, read-out: FAP IC50

Compound	IC50 [1, 3] [nM]	inhibitory activity against FAP protease activity [1]	IC50 [1] [nM]	IC50 [2] [nM]
CCCCCC(=O)N[C@H]1CSCc2cccc(c2)CSC[C@@H](CC(=O)N[C@@H](CC(=O)O)C(N)=O)NC(=O)[C@H](Cc2ccccc2)NC(=O)[C@H](CCC(N)=O)NC(=O)[C@H]([C@@H](C)O)NC(=O)[C@@H]2CCCN2C(=O)[C@@H]2CCCN2C1=O [Compound 1, Hex-Cys-Pro-Pro-Thr-Gln-Phe-beta-HomoCys-Asp-NH2 (Cys bridge DBMB) trifluoroacetate] (Hexanoyl-CPPTQF[β3hC]D-NH2; linker 1-7 via mXylylene)			2.91	> 10000
CCCCCC(=O)N[C@H]1CSCc2cccc(c2)CSC[C@@H](CC(=O)O)NC(=O)[C@H](Cc2ccccc2)NC(=O)[C@H](CCC(N)=O)NC(=O)[C@H]([C@@H](C)O)NC(=O)[C@@H]2CCCN2C(=O)[C@@H]2CCCN2C1=O [Compound 2, Hex-Cys-Pro-Pro-Thr-Gln-Phe-beta-HomoCys-OH (Cys bridge DBMB) trifluoroacetate]			4.24	> 10000
CCCCCC(=O)N[C@H]1CSCc2cccc(c2)CSC[C@@H](C(=O)O)NC(=O)[C@H](CC2CCCCC2)NC(=O)[C@H](CCC(N)=O)NC(=O)[C@H]([C@@H](C)O)NC(=O)[C@@H]2CCCN2C(=O)[C@@H]2CCCN2C1=O [Compound 3, Hex-Cys-Pro-Pro-Thr-Gln-Cha-Cys-OH (Cys bridge DBMB) trifluoroacetate] (Hexanoyl-CPPTQ[Cha]C-OH; linker 1-7 via mXylylene)			25.1	> 10000
CCCCCC(=O)N[C@H]1CSCc2cccc(c2)CSC[C@@H](C(=O)O)NC(=O)[C@H](Cc2ccccc2)NC(=O)[C@H](CCC(N)=O)NC(=O)[C@H]([C@@H](C)O)NC(=O)[C@@H]2CCCN2C(=O)[C@@H]2CCCN2C1=O [Compound 3BP-4186, reference compound]			98.8	> 10000
CCCCCC(=O)N[C@H]1CSCc2cccc(c2)CSC[C@@H](CN)NC(=O)[C@H](Cc2ccccc2)NC(=O)[C@H](CCC(N)=O)NC(=O)[C@H]([C@@H](C)O)NC(=O)[C@@H]2CCCN2C(=O)[C@@H]2CCCN2C1=O [Compound 4, Hex-Cys-Pro-Pro-Thr-Gln-Phe-Cys-CH2NH2 (Cys bridge DBMB) trifluoroacetate] (Hexanoyl-CPPTQF; linker 1-C via X6)			11.3	
CCCCCC(=O)N[C@H]1CSCc2cccc(c2)CSC[C@@H](CNC(C)=O)NC(=O)[C@H](Cc2ccccc2)NC(=O)[C@H](CCC(N)=O)NC(=O)[C@H]([C@@H](C)O)NC(=O)[C@@H]2CCCN2C(=O)[C@@H]2CCCN2C1=O [Compound 5, Hex-Cys-Pro-Pro-Thr-Gln-Phe-Cys-CH2NHAc (Cys bridge DBMB) trifluoroacetate] (Hexanoyl-CPPTQF; linker 1-C via X4)			1.8	> 10000
CCCCCC(=O)N[C@H]1CSCc2cccc(c2F)CSC[C@@H](C(=O)O)NC(=O)[C@H](Cc2ccccc2)NC(=O)[C@H](CCC(N)=O)NC(=O)[C@H]([C@@H](C)O)NC(=O)[C@@H]2CCCN2C(=O)[C@@H]2CCCN2C1=O [Compound 6, Hex-Cys-Pro-Pro-Thr-Gln-Phe-Cys-OH (Cys bridge 2,6-bis(bromomethyl)fluorobenzene) trifluoroacetate]	7.25			> 10000

More lines, main results first:

IC50 [1, 3] [nM]	inhibitory activity against FAP protease activity [1]	Compound	IC50 [1] [nM]	IC50 [2] [nM]
14.7	good inhibitory activity	CCCCCC(=O)N[C@@H]1CSCc2cc(CSCCNC(=O)CN3CCN(CC(=O)O)CCN(CC(=O)O)CCN(CC(=O)O)CC3)cc(c2)CSC[C@@H](CC(=O)O)NC(=O)[C@H](Cc2cccc3ccccc23)NC(=O)[C@H](CCC(N)=O)NC(=O)[C@H]([C@@H](C)O)NC(=O)[C@@H]2CCCN2C(=O)[C@@H]2CCCN2C1=O [Compound 78, Hexanoyl-(D-Cys(tMeBn(DOTA-AET))-Pro-Pro-Thr-Gln-1Nal-betahomoCys)-OH] (Hexanoyl-[dC]PPTQ[1Nal][β3hC]-OH; linker 1-7 via TBMB(SCH2CH2NH-DOTA))		
> 5000		CCCCCC(=O)N[C@H]1CSCc2cc(CSCCNC(=O)CN3CCN(CC(=O)O)CCN(CC(=O)O)CCN(CC(=O)O)CC3)cc(c2)CSC[C@@H](CC(=O)O)NC(=O)[C@H](Cc2cccc3ccccc23)NC(=O)[C@H](CCC(N)=O)NC(=O)[C@H]([C@@H](C)O)NC(=O)[C@@H]2CCCN2C(=O)[C@H]2CCCN2C1=O [Compound 79, Hexanoyl-(Cys(tMeBn(DOTA-AET))-D-Pro-Pro-Thr-Gln-1Nal-betahomoCys)-OH] (Hexanoyl-C[dP]PTQ[1Nal][β3hC]-OH; linker 1-7 via TBMB(SCH2CH2NH-DOTA))		
566		CCCCCC(=O)N[C@H]1CSCc2cc(CSCCNC(=O)CN3CCN(CC(=O)O)CCN(CC(=O)O)CCN(CC(=O)O)CC3)cc(c2)CSC[C@@H](CC(=O)O)NC(=O)[C@H](Cc2cccc3ccccc23)NC(=O)[C@H](CCC(N)=O)NC(=O)[C@H]([C@@H](C)O)NC(=O)[C@H]2CCCN2C(=O)[C@@H]2CCCN2C1=O [Compound 80, Hexanoyl-(Cys(tMeBn(DOTA-AET))-Pro-D-Pro-Thr-Gln-1Nal-betahomoCys)-OH] (Hexanoyl-CP[dP]TQ[1Nal][β3hC]-OH; linker 1-7 via TBMB(SCH2CH2NH-DOTA))		
70.6	good inhibitory activity	CCCCCC(=O)N[C@H]1CSCc2cc(CSCCNC(=O)CN3CCN(CC(=O)O)CCN(CC(=O)O)CCN(CC(=O)O)CC3)cc(c2)CSC[C@@H](CC(=O)O)NC(=O)[C@H](Cc2cccc3ccccc23)NC(=O)[C@H](CCC(N)=O)NC(=O)[C@@H]([C@H](C)O)NC(=O)[C@@H]2CCCN2C(=O)[C@@H]2CCCN2C1=O [Compound 81, Hexanoyl-(Cys(tMeBn(DOTA-AET))-Pro-Pro-D-Thr-Gln-1Nal-betahomoCys)-OH] (Hexanoyl-CPP[dT]Q[1Nal][β3hC]-OH; linker 1-7 via TBMB(SCH2CH2NH-DOTA))		
209		CCCCCC(=O)N[C@H]1CSCc2cc(CSCCNC(=O)CN3CCN(CC(=O)O)CCN(CC(=O)O)CCN(CC(=O)O)CC3)cc(c2)CSC[C@@H](CC(=O)O)NC(=O)[C@H](Cc2cccc3ccccc23)NC(=O)[C@@H](CCC(N)=O)NC(=O)[C@H]([C@@H](C)O)NC(=O)[C@@H]2CCCN2C(=O)[C@@H]2CCCN2C1=O [Compound 82, Hexanoyl-(Cys(tMeBn(DOTA-AET))-Pro-Pro-Thr-D-Gln-1Nal-betahomoCys)-OH] (Hexanoyl-CPPT[dQ][1Nal][β3hC]-OH; linker 1-7 via TBMB(SCH2CH2NH-DOTA))		
1040		CCCCCC(=O)N[C@H]1CSCc2cc(CSCCNC(=O)CN3CCN(CC(=O)O)CCN(CC(=O)O)CCN(CC(=O)O)CC3)cc(c2)CSC[C@@H](CC(=O)O)NC(=O)[C@@H](Cc2cccc3ccccc23)NC(=O)[C@H](CCC(N)=O)NC(=O)[C@H]([C@@H](C)O)NC(=O)[C@@H]2CCCN2C(=O)[C@@H]2CCCN2C1=O [Compound 83, Hexanoyl-(Cys(tMeBn(DOTA-AET))-Pro-Pro-Thr-Gln-D-1Nal-betahomoCys)-OH] (Hexanoyl-CPPTQ[d1Nal][β3hC]-OH; linker 1-7 via TBMB(SCH2CH2NH-DOTA))		
6.7	good inhibitory activity	CCCCCC(=O)N[C@H]1CSCc2cc(CSCCNC(=O)CN3CCN(CC(=O)O)CCN(CC(=O)O)CCN(CC(=O)O)CC3)cc(c2)CSC[C@H](CC(=O)O)NC(=O)[C@H](Cc2cccc3ccccc23)NC(=O)[C@H](CCC(N)=O)NC(=O)[C@H]([C@@H](C)O)NC(=O)[C@@H]2CCCN2C(=O)[C@@H]2CCCN2C1=O [Compound 84, Hexanoyl-(Cys(tMeBn(DOTA-AET))-Pro-Pro-Thr-Gln-1Nal-D-betahomoCys)-OH] (Hexanoyl-CPPTQ[1Nal][d(β3hC)]-OH; linker 1-7 via TBMB(SCH2CH2NH-DOTA))		
